How the values were obtained:
Type in all cases: cell-based
Pseudomonas fluorescens [1] = assay: Synergy growth inhibition experiments, impedimetric, factorial design; details: each alone: protamine 250 µg/ml, polylysine 500 µg/ml, lactoperoxidase 2 U/ml, glucose oxidase 2 U/ml
Protocol: Impedimetric measurements carried out as described in example 1 have shown an synergistic effect between basic peptides as protamine, polyarginine or polylysine and lysozyme and/or glucose oxidase and/or the lactoperoxidase enzyme system depending on pH and NaCl concentration.
Growth inhibition experiments were conducted, wherein synergistic and additional effects were determined by mixing compounds in low concentrations not having any activity on their own and using a factoral design. The effects were measured as growth inhibition or a 100% bacteriocidal effect with a total kill of the inoculum.

Shewanella putrefaciens = assay: Impedimetric MIC / detection time, growing cells in TSB (Bactometer); details: Table 4, determined as in Example 1 (inhibition of at least 100 hours); n.e. = not effective
Protocol: (§1) Volumes (1.0 ml) of TSB medium were added to Bactometer® wells. Protamine solutions (0.1 ml) were transferred to the wells which were sealed, connected to the Bactometer B123-2 (bioMérieux UK ltd., UK) and incubated at 25°C until a significant detectable increase in the electrical conductivity of the medium was registered and the detection time (DT) was recorded (maximum 100 h). Detection usually occurs when the cell concentration reaches 10^6-10^7 cfu/ml. For the Gram-positive strains the capacitance signal was monitored, while change in conductance was used for Gram-negative strains.
(§2) was measured in the Bactometer modules. […]
(§3) Minimum Inhibition Concentration (MIC) was determined as the lowest concentration of protamine resulting in absence of a DT.
(§4) When no DT was measured, the lethal/inhibitory effect on the cells were tested by plating the total well volume.
(§5) The minimum inhibition concentration (MIC) of various-substances was determined as described in Example 1. […]
(§6) Further, the influence of cell concentration on the anti-bacterial effect of protamine was tested using the materials and methods described in Example 1, i.e.the correlation between cell concentration and protamine concentration has been measured by the impedimetric assay.

Listeria monocytogenes = assay: as above; details: Table 4, determined as in Example 1 (inhibition of at least 100 hours); n.e. = not effective
Protocol: as §1, §2, §3, §4, §5, §6

Pseudomonas aeruginosa = assay: as above; design: key: n.e.: not effective; details: Table 4, strain printed as Pseudomonas aeroginosa; determined as in Example 1 (inhibition of at least 100 hours); n.e. = not effective
Protocol: as §1
(§7) was measured in the Bactometer modules. The wells (containing 1 ml TSB and 0.1 ml protamine solution) were inoculated with 0.1 ml from a 10^-4 dilution of an inoculum culture, giving a final cell concentration in the well of approximately 10^3 cfu/ml. The concentration of protamine varied from 1 to 4000 µg/ml depending on the sensitivity of the strain investigated.
as §3, §4, §5

all the tested strains = assay: Comparative impedimetric MIC, all tested strains of Table 4; details: summary of Table 4
Protocol: (§8) The minimum inhibition concentration (MIC) of various-substances was determined as described in Example 1.
(§9) The following substances were tested: protamine (A), protamine sulphate (B), a peroxidase enzyme system (i.e. lactoperoxidase/glucoseoxidase (C)), subtilisin A (D), polyarginine (E) having an average molecular weight of about 6 kD and lysozyme (F) (150 000 units/mg; Johansen, C. et al., 1994).

Pseudomonas fluorescens [2] = assay: Impedimetric MIC / detection time, growing cells in TSB (Bactometer); design: key: n.e.: not effective; details: Table 4, determined as in Example 1 (inhibition of at least 100 hours); n.e. = not effective
Protocol: as §1, §7, §3, §4, §5

Staphylococcus aureus = assay: as above; details: Table 4, determined as in Example 1 (inhibition of at least 100 hours); n.e. = not effective
Protocol: as §1, §7, §3, §4, §8, §9

Escherichia coli 0157:H7 = assay: as above; details: Table 4, strain printed as Escherichia coli; determined as in Example 1 (inhibition of at least 100 hours); n.e. = not effective
Protocol: as §1, §7, §3, §4, §8, §9

Vibrio paraheamolyticus = assay: as above; details: Table 4, determined as in Example 1 (inhibition of at least 100 hours); n.e. = not effective
Protocol: as §1, §7, §3, §4, §8, §9

polylysine
growth inhibition, compound alone (Pseudomonas fluorescens [1]): not inhibited

polyarginine
Minimum Inhibitory Concentration (Shewanella putrefaciens): 1500 µg/mL
Minimum Inhibitory Concentration (Listeria monocytogenes): 2000 µg/mL
Minimum Inhibitory Concentration (Pseudomonas aeruginosa): n.e.
effectiveness for inhibiting the tested strains (all the tested strains): effective for inhibiting all strains but Pseudomonas spp.
Minimum Inhibitory Concentration (Pseudomonas fluorescens [2]): n.e.
Minimum Inhibitory Concentration (Staphylococcus aureus): 1500 µg/mL
Minimum Inhibitory Concentration (Escherichia coli 0157:H7): 1500 µg/mL
Minimum Inhibitory Concentration (Vibrio paraheamolyticus): 2000 µg/mL

— patent EP0778733B1, “A BASIC PROTEIN COMPOSITION FOR KILLING OR INHIBITING MICROBIAL CELLS” (NOVO NORDISK A/S, priority 1994, dated 1996)
